Test results: US8802597B2, “Herbicidal pyrimidines” (E I du Pont de Nemours and Company, priority 2003, dated 2014)

What was measured:
Assay in all cases: Test A pre/postemergence
Assay type in all cases: in vivo
[1] = system: morningglory (Ipomoea spp.)
In short: (§1)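 Pre/post greenhouse screen; loam/sand soil; solvent + surfactant formulation; pre = directed soil spray at planting, post = 1–2 leaf plants, 2–10 cm; ~10 d; visual 0–100 rating vs untreated.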

[2] = system: giant foxtail (Setaria faberi)
In short: as §1

[3] = system: barnyardgrass (Echinochloa crus-galli)
In short: as §1

[4] = system: redroot pigweed (Amaranthus retroflexus)
In short: as §1

[5] = system: crabgrass (Digitaria sanguinalis)
In short: as §1

[6] = system: velvetleaf (Abutilon theophrasti)
In short: as §1

[7] = Postemergence, 125 g ai/ha, 0 to 100 scale (0 no effect, 100 complete control)
[8] = Postemergence, 500 g ai/ha, 0 to 100 scale (0 no effect, 100 complete control)
[9] = Preemergence, 125 g ai/ha, 0 to 100 scale where 0 is no effect and 100 is complete control, approximately ten days
[10] = Preemergence, 500 g ai/ha, 0 to 100 scale where 0 is no effect and 100 is complete control, approximately ten days

## CCOC(OCC)c1nc(-c2ccc(I)cc2)nc(N)c1Cl [Compound 138]
[1]; [7]
  Plant response rating, Morningglory: 0
[1]; [8]
  Plant response rating, Morningglory: 20
[1]; [9]
  Plant response rating, Morningglory: 0
[1]; [10]
  Plant response rating, Morningglory: 0
[2]; [7]
  Plant response rating, Foxtail, Giant: 0
[2]; [8]
  Plant response rating, Foxtail, Giant: 0
[2]; [9]
  Plant response rating, Foxtail, Giant: 0
[2]; [10]
  Plant response rating, Foxtail, Giant: 0
[3]; [7]
  Plant response rating, Barnyardgrass: 0
[3]; [8]
  Plant response rating, Barnyardgrass: 0
[3]; [9]
  Plant response rating, Barnyardgrass: 0
[3]; [10]
  Plant response rating, Barnyardgrass: 0
[4]; [7]
  Plant response rating, Pigweed: 20
[4]; [8]
  Plant response rating, Pigweed: 35
[4]; [9]
  Plant response rating, Pigweed: 0
[4]; [10]
  Plant response rating, Pigweed: 0
[5]; [7]
  Plant response rating, Crabgrass: 0
[5]; [8]
  Plant response rating, Crabgrass: 0
[5]; [9]
  Plant response rating, Crabgrass: 0
[5]; [10]
  Plant response rating, Crabgrass: 0
[6]; [7]
  Plant response rating, Velvetleaf: 60
[6]; [8]
  Plant response rating, Velvetleaf: 70
[6]; [9]
  Plant response rating, Velvetleaf: 0
[6]; [10]
  Plant response rating, Velvetleaf: 0

## CCCCOCCOC(=O)c1nc(C2CC2)nc(N)c1Cl [Compound 139]
[1]; [7]
  Plant response rating, Morningglory: 80
[1]; [8]
  Plant response rating, Morningglory: 90
[1]; [9]
  Plant response rating, Morningglory: 90
[1]; [10]
  Plant response rating, Morningglory: 100
[2]; [7]
  Plant response rating, Foxtail, Giant: 80
[2]; [8]
  Plant response rating, Foxtail, Giant: 80
[2]; [9]
  Plant response rating, Foxtail, Giant: 80
[2]; [10]
  Plant response rating, Foxtail, Giant: 90
[3]; [7]
  Plant response rating, Barnyardgrass: 80
[3]; [8]
  Plant response rating, Barnyardgrass: 90
[3]; [9]
  Plant response rating, Barnyardgrass: 75
[3]; [10]
  Plant response rating, Barnyardgrass: 90
[4]; [7]
  Plant response rating, Pigweed: 90
[4]; [8]
  Plant response rating, Pigweed: 100
[4]; [9]
  Plant response rating, Pigweed: 90
[4]; [10]
  Plant response rating, Pigweed: 100
[5]; [7]
  Plant response rating, Crabgrass: 60
[5]; [8]
  Plant response rating, Crabgrass: 70
[5]; [9]
  Plant response rating, Crabgrass: 75
[5]; [10]
  Plant response rating, Crabgrass: 90
[6]; [7]
  Plant response rating, Velvetleaf: 85
[6]; [8]
  Plant response rating, Velvetleaf: 90
[6]; [9]
  Plant response rating, Velvetleaf: 90
[6]; [10]
  Plant response rating, Velvetleaf: 90

## Nc1nc(C2CC2)nc(C(=O)OCC2CO2)c1Cl (stereo not drawn) [Compound 140]
[1]; [7]
  Plant response rating, Morningglory: 85
[1]; [8]
  Plant response rating, Morningglory: 90
[1]; [9]
  Plant response rating, Morningglory: 90
[1]; [10]
  Plant response rating, Morningglory: 95
[2]; [7]
  Plant response rating, Foxtail, Giant: 85
[2]; [8]
  Plant response rating, Foxtail, Giant: 90
[2]; [9]
  Plant response rating, Foxtail, Giant: 40
[2]; [10]
  Plant response rating, Foxtail, Giant: 85
[3]; [7]
  Plant response rating, Barnyardgrass: 70
[3]; [8]
  Plant response rating, Barnyardgrass: 90
[3]; [9]
  Plant response rating, Barnyardgrass: 70
[3]; [10]
  Plant response rating, Barnyardgrass: 90
[4]; [7]
  Plant response rating, Pigweed: 90
[4]; [8]
  Plant response rating, Pigweed: 100
[4]; [9]
  Plant response rating, Pigweed: 90
[4]; [10]
  Plant response rating, Pigweed: 95
[5]; [7]
  Plant response rating, Crabgrass: 65
[5]; [8]
  Plant response rating, Crabgrass: 80
[5]; [9]
  Plant response rating, Crabgrass: 70
[5]; [10]
  Plant response rating, Crabgrass: 90
[6]; [7]
  Plant response rating, Velvetleaf: 90
[6]; [8]
  Plant response rating, Velvetleaf: 90
[6]; [9]
  Plant response rating, Velvetleaf: 90
[6]; [10]
  Plant response rating, Velvetleaf: 95

## COCCOCCOC(=O)c1nc(C2CC2)nc(N)c1Cl [Compound 141]
[1]; [7]
  Plant response rating, Morningglory: 90
[1]; [8]
  Plant response rating, Morningglory: 90
[1]; [9]
  Plant response rating, Morningglory: 85
[1]; [10]
  Plant response rating, Morningglory: 95
[2]; [7]
  Plant response rating, Foxtail, Giant: 40
[2]; [8]
  Plant response rating, Foxtail, Giant: 85
[2]; [9]
  Plant response rating, Foxtail, Giant: 5
[2]; [10]
  Plant response rating, Foxtail, Giant: 85
[3]; [7]
  Plant response rating, Barnyardgrass: 80
[3]; [8]
  Plant response rating, Barnyardgrass: 90
[3]; [9]
  Plant response rating, Barnyardgrass: 35
[3]; [10]
  Plant response rating, Barnyardgrass: 75
[4]; [7]
  Plant response rating, Pigweed: 90
[4]; [8]
  Plant response rating, Pigweed: 100
[4]; [9]
  Plant response rating, Pigweed: 80
[4]; [10]
  Plant response rating, Pigweed: 85
[5]; [7]
  Plant response rating, Crabgrass: 25
[5]; [8]
  Plant response rating, Crabgrass: 80
[5]; [9]
  Plant response rating, Crabgrass: 60
[5]; [10]
  Plant response rating, Crabgrass: 85
[6]; [7]
  Plant response rating, Velvetleaf: 85
[6]; [8]
  Plant response rating, Velvetleaf: 100
[6]; [9]
  Plant response rating, Velvetleaf: 80
[6]; [10]
  Plant response rating, Velvetleaf: 85

## Nc1nc(C2CC2)nc(C(=O)OCCCOC(=O)c2nc(C3CC3)nc(N)c2Cl)c1Cl [Compound 142]
[1]; [7]
  Plant response rating, Morningglory: 90
[1]; [8]
  Plant response rating, Morningglory: 90
[1]; [9]
  Plant response rating, Morningglory: 85
[1]; [10]
  Plant response rating, Morningglory: 95
[2]; [7]
  Plant response rating, Foxtail, Giant: 30
[2]; [8]
  Plant response rating, Foxtail, Giant: 45
[2]; [9]
  Plant response rating, Foxtail, Giant: 25
[2]; [10]
  Plant response rating, Foxtail, Giant: 65
[3]; [7]
  Plant response rating, Barnyardgrass: 45
[3]; [8]
  Plant response rating, Barnyardgrass: 75
[3]; [9]
  Plant response rating, Barnyardgrass: 50
[3]; [10]
  Plant response rating, Barnyardgrass: 75
[4]; [7]
  Plant response rating, Pigweed: 85
[4]; [8]
  Plant response rating, Pigweed: 90
[4]; [9]
  Plant response rating, Pigweed: 70
[4]; [10]
  Plant response rating, Pigweed: 90
[5]; [7]
  Plant response rating, Crabgrass: 15
[5]; [8]
  Plant response rating, Crabgrass: 25
[5]; [9]
  Plant response rating, Crabgrass: 45
[5]; [10]
  Plant response rating, Crabgrass: 85
[6]; [7]
  Plant response rating, Velvetleaf: 80
[6]; [8]
  Plant response rating, Velvetleaf: 90
[6]; [9]
  Plant response rating, Velvetleaf: 85
[6]; [10]
  Plant response rating, Velvetleaf: 85

## Nc1nc(C2CC2)nc(C(=O)OCCCO)c1Cl [Compound 143]
[1]; [7]
  Plant response rating, Morningglory: 90
[1]; [8]
  Plant response rating, Morningglory: 90
[1]; [9]
  Plant response rating, Morningglory: 90
[1]; [10]
  Plant response rating, Morningglory: 100
[2]; [7]
  Plant response rating, Foxtail, Giant: 25
[2]; [8]
  Plant response rating, Foxtail, Giant: 80
[2]; [9]
  Plant response rating, Foxtail, Giant: 35
[2]; [10]
  Plant response rating, Foxtail, Giant: 75
[3]; [7]
  Plant response rating, Barnyardgrass: 55
[3]; [8]
  Plant response rating, Barnyardgrass: 75
[3]; [9]
  Plant response rating, Barnyardgrass: 65
[3]; [10]
  Plant response rating, Barnyardgrass: 85
[4]; [7]
  Plant response rating, Pigweed: 70
[4]; [8]
  Plant response rating, Pigweed: 90
[4]; [9]
  Plant response rating, Pigweed: 65
[4]; [10]
  Plant response rating, Pigweed: 95
[5]; [7]
  Plant response rating, Crabgrass: 5
[5]; [8]
  Plant response rating, Crabgrass: 60
[5]; [9]
  Plant response rating, Crabgrass: 70
[5]; [10]
  Plant response rating, Crabgrass: 95
[6]; [7]
  Plant response rating, Velvetleaf: 75
[6]; [8]
  Plant response rating, Velvetleaf: 95
[6]; [9]
  Plant response rating, Velvetleaf: 90
[6]; [10]
  Plant response rating, Velvetleaf: 95

## CC(C)N.Nc1nc(C2CC2)nc(C(=O)O)c1Cl [Compound 144]
[1]; [7]
  Plant response rating, Morningglory: 85
[1]; [8]
  Plant response rating, Morningglory: 95
[1]; [9]
  Plant response rating, Morningglory: 85
[1]; [10]
  Plant response rating, Morningglory: 95
[2]; [7]
  Plant response rating, Foxtail, Giant: 70
[2]; [8]
  Plant response rating, Foxtail, Giant: 80
[2]; [9]
  Plant response rating, Foxtail, Giant: 35
[2]; [10]
  Plant response rating, Foxtail, Giant: 80
[3]; [7]
  Plant response rating, Barnyardgrass: 60
[3]; [8]
  Plant response rating, Barnyardgrass: 90
[3]; [9]
  Plant response rating, Barnyardgrass: 65
[3]; [10]
  Plant response rating, Barnyardgrass: 80
[4]; [7]
  Plant response rating, Pigweed: 85
[4]; [8]
  Plant response rating, Pigweed: 100
[4]; [9]
  Plant response rating, Pigweed: 75
[4]; [10]
  Plant response rating, Pigweed: 85
[5]; [7]
  Plant response rating, Crabgrass: 40
[5]; [8]
  Plant response rating, Crabgrass: 80
[5]; [9]
  Plant response rating, Crabgrass: 75
[5]; [10]
  Plant response rating, Crabgrass: 95
[6]; [7]
  Plant response rating, Velvetleaf: 95
[6]; [8]
  Plant response rating, Velvetleaf: 100
[6]; [9]
  Plant response rating, Velvetleaf: 75
[6]; [10]
  Plant response rating, Velvetleaf: 85

## Nc1nc(C2CC2)nc(C(=O)Oc2ccc(Cl)cc2)c1Cl [Compound 145]
[1]; [7]
  Plant response rating, Morningglory: 80
[1]; [8]
  Plant response rating, Morningglory: 95
[1]; [9]
  Plant response rating, Morningglory: 75
[1]; [10]
  Plant response rating, Morningglory: 100
[2]; [7]
  Plant response rating, Foxtail, Giant: 20
[2]; [8]
  Plant response rating, Foxtail, Giant: 70
[2]; [9]
  Plant response rating, Foxtail, Giant: 0
[2]; [10]
  Plant response rating, Foxtail, Giant: 60
[3]; [7]
  Plant response rating, Barnyardgrass: 30
[3]; [8]
  Plant response rating, Barnyardgrass: 60
[3]; [9]
  Plant response rating, Barnyardgrass: 30
[3]; [10]
  Plant response rating, Barnyardgrass: 75
[4]; [7]
  Plant response rating, Pigweed: 80
[4]; [8]
  Plant response rating, Pigweed: 90
[4]; [9]
  Plant response rating, Pigweed: 65
[4]; [10]
  Plant response rating, Pigweed: 85
[5]; [7]
  Plant response rating, Crabgrass: 5
[5]; [8]
  Plant response rating, Crabgrass: 30
[5]; [9]
  Plant response rating, Crabgrass: 65
[5]; [10]
  Plant response rating, Crabgrass: 80
[6]; [7]
  Plant response rating, Velvetleaf: 75
[6]; [8]
  Plant response rating, Velvetleaf: 95
[6]; [9]
  Plant response rating, Velvetleaf: 70
[6]; [10]
  Plant response rating, Velvetleaf: 85

## CC(C)=NOC(=O)c1nc(C2CC2)nc(N)c1Cl [Compound 146]
[1]; [7]
  Plant response rating, Morningglory: 85
[1]; [8]
  Plant response rating, Morningglory: 100
[1]; [9]
  Plant response rating, Morningglory: 95
[1]; [10]
  Plant response rating, Morningglory: 100
[2]; [7]
  Plant response rating, Foxtail, Giant: 80
[2]; [8]
  Plant response rating, Foxtail, Giant: 85
[2]; [9]
  Plant response rating, Foxtail, Giant: 60
[2]; [10]
  Plant response rating, Foxtail, Giant: 90
[3]; [7]
  Plant response rating, Barnyardgrass: 70
[3]; [8]
  Plant response rating, Barnyardgrass: 90
[3]; [9]
  Plant response rating, Barnyardgrass: 65
[3]; [10]
  Plant response rating, Barnyardgrass: 90
[4]; [7]
  Plant response rating, Pigweed: 90
[4]; [8]
  Plant response rating, Pigweed: 95
[4]; [9]
  Plant response rating, Pigweed: 75
[4]; [10]
  Plant response rating, Pigweed: 95
[5]; [7]
  Plant response rating, Crabgrass: 20
[5]; [8]
  Plant response rating, Crabgrass: 80
[5]; [9]
  Plant response rating, Crabgrass: 35
[5]; [10]
  Plant response rating, Crabgrass: 75
[6]; [7]
  Plant response rating, Velvetleaf: 85
[6]; [8]
  Plant response rating, Velvetleaf: 100
[6]; [9]
  Plant response rating, Velvetleaf: 85
[6]; [10]
  Plant response rating, Velvetleaf: 100
